Molecules are shown by their SMILES.

Results on three compounds are retold here after US20240264164A1, “DETERGENTS AND METHODS” (OXFORD UNIVERSITY INNOVATION LIMITED, priority 2021, published 2024).

In test [1] the target is T1, membrane protein AqpZ (Escherichia coli, UniProt P60844). The test is described as follows: Stability of AqpZ in detergent solution after extraction from native membrane and IMAC. On the set-up: made in house. Particulars: extraction with 1% w/v detergent solution, IMAC purification. How it is done: Different solutions of the membrane protein AqpZ were prepared by extracting the protein from its native membrane using a 1% w/v detergent solution and then purifying the samples using IMAC. The following solutions were prepared: one containing the hybrid detergent, one containing DDM, one containing C8E4 and one containing a mixture of C8E4 and DDM. AgpZ precipitated from the solutions containing C8E4, even when DDM was also present.
T1 sequence (P60844 whole entry): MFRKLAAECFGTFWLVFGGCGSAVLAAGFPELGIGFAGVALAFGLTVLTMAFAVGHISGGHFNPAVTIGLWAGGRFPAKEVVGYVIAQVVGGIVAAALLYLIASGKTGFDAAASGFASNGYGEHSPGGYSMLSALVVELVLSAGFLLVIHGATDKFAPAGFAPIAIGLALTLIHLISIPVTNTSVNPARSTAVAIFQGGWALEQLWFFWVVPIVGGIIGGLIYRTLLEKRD

Test [2] deals with T1, membrane protein AqpZ. Nature of the test: nano-electrospray ionization mass spectrometry of AqpZ in detergent (FIG. 9). On the set-up: made in house; host or cells: bacterial culture (LB broth, ampicillin). Particulars: nESI, Q Exactive. How it is done: The samples were analysed using a Q-Exactive mass spectrometer using the following instrumental parameters: • Injection flatapole: 7.9 V • Inter flatapole lens: 6.9 V • Bent flatapole: 5.9 V • Transfer multipole: 4 V • Capillary voltage: 1.2 kV • Source temperature: 100° C. • Voltage applied to the C-trap entrance lens: 5.8 V • In-source trapping voltage: 0-200 V • Higher-energy collisional dissociation (HCD) cell voltage: 100-200 V • HCD cell pressure: 9×10^−10 mBar • Noise level parameter: 3 • Microscans: 10 • Resolution: 17,500
The suitability of the hybrid detergent in nano-electrospray ionization was investigated using a Q Exactive mass spectrometer. The results are shown in FIG. 9, along with results obtained using DDM and C8E4.

For `CCCCCCCCCCCCOCC(COCCOCCOCCOCCO)Oc1ccc(OCCOC2OC(CO)C(C3OC(CO)C(O)C(O)C3O)C(O)C2O)cc1` (stereo not drawn), the “stability of AqpZ in detergent solution” value at membrane protein AqpZ [1] is reported as “stable”. On membrane protein AqpZ [2], the “lipid-bound states of AqpZ detected” value is on record as “detected”.

Take `CCCCCCCCOCCOCCOCCOCCO` [C8E4, tetraethylene glycol monooctyl ether]: the “stability of AqpZ in detergent solution” value at membrane protein AqpZ [1] was “precipitated”. Further, at membrane protein AqpZ [2], the “level of delipidation of AqpZ” value is listed as “fully delipidating”.

`CCCCCCCCCCCCO[C@@H]1O[C@H](CO)[C@@H](O[C@H]2O[C@H](CO)[C@@H](O)[C@H](O)[C@H]2O)[C@H](O)[C@H]1O` [DDM, n-dodecyl-β-D-maltoside]: on membrane protein AqpZ [2], the “level of delipidation of AqpZ” value was “relatively low levels of delipidation” and the “lipid-bound states of AqpZ detected” value is “detected”.
